# From patent US8110682B2, “Preparation and use of compounds as aspartyl protease inhibitors” (Schering Corporation, priority 2005, dated 2012)
# Target: T1, sproBACE1 (soluble human BACE1) (Homo sapiens, UniProt P56817)
# T1 construct: sBACE1, corresponding to amino acids 1-454; myc (C); His (C); made in house; host or cells: Sf9 insect cells (baculovirus), secreted into medium
# Experiment: BACE-1 peptide hydrolysis assay (HTRF, APPsw substrate)
# Format: biochemical
# Details: 7 nM sproBACE1, pH 5.0, 30° C.
# Source text: A predicted soluble form of human BACE1 (sBACE1, corresponding to amino acids 1-454) is generated from the full length BACE1 cDNA (full length human BACE1 cDNA in pcDNA4/mycHisA construct; University of Toronto) by PCR using the advantage-GC cDNA PCR kit (Clontech, Palo Alto, Calif.). A HindIII/Pmel fragment from pcDNA4-sBACE1 myc/His is blunt ended using Klenow and subcloned into the Stu I site of pFASTBACI(A) (Invitrogen). A sBACE1mycHis recombinant bacmid is generated by transposition in DH10Bac cells(GIBCO/BRL). Subsequently, the sBACE1 mycHis bacmid construct is transfected into sf9 cells using CellFectin (Invitrogen, San Diego, Calif.) in order to generate recombinant baculovirus. […]
# Proteins, are eluted from the Q-sepharose column with Buffer B (20 mM HEPES, pH 8.0, 500 mM NaCl). […] Peak protein fractions as determined by the Bradford Assay (Biorad, Calif.) are concentrated using a Centricon 30 concentrator (Millipore). sBACE1 purity is estimated to be ˜90% as assessed by SDS-PAGE and Commassie Blue staining. […]
# IC50 determinations for inhibitors, (I), are determined by measuring the percent change of the relative fluorescence at 665 nm divided by the relative fluorescence at 620 nm, (665/620 ratio), in the presence of varying concentrations of I and a fixed concentration of enzyme and substrate.
# T1 sequence (P56817 22-454): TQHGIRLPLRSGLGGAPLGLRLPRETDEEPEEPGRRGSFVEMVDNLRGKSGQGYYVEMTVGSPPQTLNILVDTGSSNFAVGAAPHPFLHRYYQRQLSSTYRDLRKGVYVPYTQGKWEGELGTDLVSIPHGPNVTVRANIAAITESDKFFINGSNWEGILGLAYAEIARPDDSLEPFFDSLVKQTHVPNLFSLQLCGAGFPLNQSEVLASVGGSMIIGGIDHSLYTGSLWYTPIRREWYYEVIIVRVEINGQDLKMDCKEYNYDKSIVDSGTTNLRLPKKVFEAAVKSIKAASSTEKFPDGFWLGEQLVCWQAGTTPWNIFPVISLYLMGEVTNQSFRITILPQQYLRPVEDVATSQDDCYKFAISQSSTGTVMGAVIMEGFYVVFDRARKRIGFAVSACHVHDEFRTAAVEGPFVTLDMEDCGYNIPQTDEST
structure (smiles),measurement,value
CN1C(=N)NC(C)(c2cccc(-c3cc(Cl)cc(Cl)c3)c2)N(C)C1=O (stereo not shown) [Example 7],Ki,1360 nM
